Publication PMC10900215 (JACS Au, 2024)
Several values for one entry are separate records, joined by “and”; a condition that tells them apart may be missing. Equal entries are not always repeated.

Experiments:
METTL3 [1] = target: T1, METTL3 (Homo sapiens, UniProt Q86U44); assay: Cellular degradation assay (Western blot), METTL3 in MOLM-13; type: cell-based; conditions: for MOLM-13 West. blot at 24h 2 μM comp conc. Degradation (%) of METTL3: MOLM-13, 24 h, 2 μM compound
T1 construct: METTL3–14 degradation up to 70% of the endogenous level; endogenous in cells; host or cells: MOLM-13, PC3, DU145
Summary of the method: (§1)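 Cells in RPMI 1640 with 10% FBS were treated with PROTACs or 0.1% DMSO for 24h at 37 °C. METTL3 and METTL14 levels in RIPA lysates were read by Western blot with infrared secondary detection and densitometry, normalised against GAPDH or β-actin.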

METTL14 = assay: Cellular degradation assay (Western blot), METTL14 in MOLM-13; type: cell-based, human; conditions: MOLM-13, 24 h, 2 μM compound
Summary of the method: as §1

METTL3 [2] = target: T1, METTL3; assay: Cellular degradation assay (Western blot) in DU145; type: cell-based; conditions: DU145, 2 μM, 24 h
Method: (§2) MOLM-13, NOMO-1, THP-1, Kasumi-1, PC3, and DU145 cell lines were obtained from DSMZ-German Collection of Microorganisms and Cell Cultures GmbH. Cells were cultured in RPMI 1640 medium (11875093, Thermo Fisher Scientific) containing 10% FBS (16140071, Thermo Fisher Scientific) and 1% penicillin-streptomycin (15140122, Thermo Fisher Scientific) in 5% CO2 at 37 °C in a humidified incubator, with maintained cell densities at 0.5–1 × 10^6 cells/mL. All cell lines were tested negative for mycoplasma contamination (PCR-based assay by Microsynth, Switzerland).
(§3) METTL3 (and METTL14) protein degradation was monitored by Western blot. Cells were treated with the indicated concentration of PROTACs or DMSO control (0.1% (v/v)) for 24h, 37 °C with 5% CO2. Samples were then collected and lysed with RIPA buffer with added protease inhibitors (11697498001, Roche). After SDS-PAGE, proteins were transferred to a nitrocellulose membrane, blocked (with 5% milk, 0.5% BSA in TBST buffer), and incubated overnight with primary antibodies. The following antibodies were used: GAPDH (no. 2118, Cell Signaling, 1:4000), β-actin (ab8226, Abcam, 1:2000), METTL3 (ab195352, Abcam, 1:1000), and METTL14 (ab220031, Abcam, 1:1000). Membranes were scanned using an LI-COR Odyssey DLx imager after incubation with appropriate secondary antibodies (antimouse IgG IRDye 680RD (926–68072, LI-COR, 1:10000) and goat anti-Rabbit IgG IRDye 800CW (926–32211, LI-COR, 1:10000)). Densitometry was performed in Image Studio Lite software and analyzed in GraphPad Prism 9.

[3] = Cell viability assay (CellTiter-Glo) on MOLM-13; type: cell-based; conditions: human, MOLM-13 cells, average of two biological replicates; for viability at 72 h, […]: 2.5 µM
Summary of the method: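 MOLM-13 AML cells grown in RPMI 1640 with 10% FBS at 37 °C, 5% CO2. Viability read as ATP luminescence by CellTiter-Glo after 10 min at room temperature, with background from cell-free medium wells subtracted.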

METTL3-14 [4] = target: T2, METTL3-14 (Homo sapiens, UniProt Q86U44); assay: Cellular degradation assay (Western blot), METTL3 and/or METTL14 (METTL3–14) in MOLM-13; type: cell-based; set-up: METTL3–14 degradation up to 70% of the endogenous level; endogenous in cells; host or cells: MOLM-13, KASUMI-1, THP-1, NOMO-1; conditions: for concentration at which the highest degradation was observed: MOLM-13, five concentrations; for METTL3–14 levels in the presence of UZH2: MOLM-13, 2 μM PROTAC + 10 μM UZH2; for METTL3–14 degradation in the presence of lenalidomide: MOLM-13, 2 μM PROTAC + 10 μM lenalidomide; for degradation of METTL3 and/or METTL14: MOLM-13, 2 μM, 24 h, Western blot
Method: MOLM-13, NOMO-1, THP-1, Kasumi-1, PC3, and DU145 cell lines were obtained from DSMZ-German Collection of Microorganisms and Cell Cultures GmbH. […] All cell lines were tested negative for mycoplasma contamination (PCR-based assay by Microsynth, Switzerland).
METTL3 (and METTL14) protein degradation was monitored by Western blot. Cells were treated with the indicated concentration of PROTACs or DMSO control (0.1% (v/v)) for 24h, 37 °C with 5% CO2. […] After SDS-PAGE, proteins were transferred to a nitrocellulose membrane, blocked (with 5% milk, 0.5% BSA in TBST buffer), and incubated overnight with primary antibodies. […] Densitometry was performed in Image Studio Lite software and analyzed in GraphPad Prism 9.
Target sequence in this assay (Q86U44 2-580 limits assumed): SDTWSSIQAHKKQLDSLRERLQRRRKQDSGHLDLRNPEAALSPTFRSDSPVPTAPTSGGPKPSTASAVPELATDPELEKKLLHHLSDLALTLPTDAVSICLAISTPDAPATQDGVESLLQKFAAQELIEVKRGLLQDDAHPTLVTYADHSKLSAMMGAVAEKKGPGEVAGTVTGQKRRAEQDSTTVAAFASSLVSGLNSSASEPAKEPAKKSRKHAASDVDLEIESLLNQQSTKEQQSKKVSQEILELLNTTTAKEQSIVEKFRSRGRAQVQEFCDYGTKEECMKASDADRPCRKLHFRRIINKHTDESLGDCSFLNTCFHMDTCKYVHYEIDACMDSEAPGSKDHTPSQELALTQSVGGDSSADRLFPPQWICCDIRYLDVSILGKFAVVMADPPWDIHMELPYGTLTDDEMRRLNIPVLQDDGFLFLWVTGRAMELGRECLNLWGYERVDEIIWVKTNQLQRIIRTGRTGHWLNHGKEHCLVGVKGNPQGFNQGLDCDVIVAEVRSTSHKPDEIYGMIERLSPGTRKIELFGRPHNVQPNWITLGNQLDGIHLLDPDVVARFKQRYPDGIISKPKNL
Target sequence in this assay (Q9HCE5 whole entry partner): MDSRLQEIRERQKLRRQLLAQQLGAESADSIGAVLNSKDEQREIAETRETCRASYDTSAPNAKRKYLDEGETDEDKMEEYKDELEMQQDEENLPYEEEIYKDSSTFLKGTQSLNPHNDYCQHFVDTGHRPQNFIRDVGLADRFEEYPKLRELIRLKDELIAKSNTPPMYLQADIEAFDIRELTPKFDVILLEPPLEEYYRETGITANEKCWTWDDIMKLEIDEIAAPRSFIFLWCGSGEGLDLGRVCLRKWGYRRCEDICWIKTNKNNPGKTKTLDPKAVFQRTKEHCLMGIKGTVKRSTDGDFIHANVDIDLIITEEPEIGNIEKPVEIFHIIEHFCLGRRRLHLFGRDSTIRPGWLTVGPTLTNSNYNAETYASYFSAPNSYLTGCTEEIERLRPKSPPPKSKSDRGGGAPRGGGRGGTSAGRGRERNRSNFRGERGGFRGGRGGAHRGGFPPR

METTL3-14 [5] = target: T2, METTL3-14; assay: Cellular degradation assay (Western blot) in KASUMI-1; type: cell-based; set-up: METTL3–14 degradation up to 70% of the endogenous level; endogenous in cells; host or cells: MOLM-13, KASUMI-1, THP-1, NOMO-1; conditions: KASUMI-1, 2 μM, 24 h
Method: as §2, §3
Target sequence in this assay (Q86U44 2-580 limits assumed): as the sequence (Q86U44 2-580 limits assumed) above
Target sequence in this assay (Q9HCE5 whole entry partner): as the sequence (Q9HCE5 whole entry partner) above

METTL3-14 [6] = target: T2, METTL3-14; assay: biochemical; set-up: with the full-length complex, the recombinant complex construct pFastBacDual-StrepII-GFP-TEV-METTL3-His-TEV-METTL14 was expressed; StrepII (N); GFP (N); TEV site (N); made in house; host or cells: baculovirus/Sf9 insect cells; conditions: inhibition of catalytic activity of METTL3-14, binary FRET assay
Summary of the method: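 Full-length human METTL3–METTL14 complex (StrepII-GFP-METTL3-His/METTL14) expressed in baculovirus/Sf9 cells and purified. Inhibition of METTL3 methyltransferase activity measured in a homogeneous time-resolved fluorescence (HTRF) enzyme assay; IC50 determined.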
Target sequence in this assay (Q86U44 whole entry): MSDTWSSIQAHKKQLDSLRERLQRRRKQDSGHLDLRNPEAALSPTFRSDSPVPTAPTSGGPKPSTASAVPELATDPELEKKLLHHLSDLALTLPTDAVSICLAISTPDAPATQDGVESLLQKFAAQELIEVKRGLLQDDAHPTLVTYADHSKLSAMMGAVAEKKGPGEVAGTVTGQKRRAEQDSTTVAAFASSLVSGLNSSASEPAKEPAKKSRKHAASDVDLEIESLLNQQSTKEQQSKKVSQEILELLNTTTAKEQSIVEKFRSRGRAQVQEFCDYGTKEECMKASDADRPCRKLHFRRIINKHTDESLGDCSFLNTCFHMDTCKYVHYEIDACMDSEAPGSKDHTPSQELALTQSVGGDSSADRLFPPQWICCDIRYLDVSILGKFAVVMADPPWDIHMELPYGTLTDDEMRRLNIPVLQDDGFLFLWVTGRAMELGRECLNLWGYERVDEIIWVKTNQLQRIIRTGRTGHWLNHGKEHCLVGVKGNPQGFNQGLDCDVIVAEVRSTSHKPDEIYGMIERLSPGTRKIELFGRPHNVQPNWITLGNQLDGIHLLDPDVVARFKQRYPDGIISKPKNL
Target sequence in this assay (Q9HCE5 whole entry, further chain): as the sequence (Q9HCE5 whole entry partner) above

PC3 cell line = assay: Cell viability assay (CellTiter-Glo) on PC3; type: cell-based, human
Method: as §2
Cells were seeded in white clear-bottom 96-well plates at a density of 6–20 × 10^3 cells/well in 50 μL of the complete RPMI medium and treated with 50 μL of increasing concentrations of the indicated compounds dissolved in DMSO (final concentration of compounds 0.01–10 μM) or DMSO only as a negative control (0.01% (v/v)) and incubated for 72 h at 37 °C with 5% CO2. Cell viability was determined using a CellTiter-Glo luminescent cell viability assay (Promega) based on the detection of ATP according to the manufacturer’s instructions. 100 μL of the reagent was added to each well and incubated for 10 min at room temperature. The luminescence was recorded using a Tecan Infinite […] M1000 microplate reader from the top. Background luminescence value was obtained from wells containing the CellTiter-Glo reagent and medium without cells. The resulting data was analyzed in GraphPad Prism 9.

T1 sequence (Q86U44 2-580 limits assumed): as the sequence (Q86U44 2-580 limits assumed) above
T1 sequence (Q9HCE5 whole entry partner): as the sequence (Q9HCE5 whole entry partner) above

Compound | METTL3 reduction at highest effect in concentration dependence (METTL3 [1]; MOLM-13, 1 μM) | MOLM-13 West. blot at 24h 2 μM comp conc. Degradation (%) of METTL3 (METTL3 [1]) | MOLM-13 West. blot at 24h 2 μM comp conc. Degradation (%) of METTL14 (METTL14) | effect on METTL3 level (METTL3 [2]) | viability at 72 h, 0.6 µM [3] [%] | viability at 72 h, 1.25 µM [3] [%] | viability at 72 h, […] [3] [%] | viability at 72 h, 5 µM [3] [%] | viability at 72 h, 10 µM [3] [%] | concentration at which the highest degradation was observed (METTL3-14 [4]) [µM] | degradation of both METTL3 and METTL14 relative to MOLM-13 (METTL3-14 [5]) | IC50 (METTL3-14 [6]) [nM] | METTL3–14 levels in the presence of UZH2 (METTL3-14 [4]) | METTL3–14 degradation in the presence of lenalidomide (METTL3-14 [4]) | degradation of METTL3 and/or METTL14 (METTL3-14 [4]) [%] | antiproliferative effect (PC3 cell line) | highest degradation in concentration dependence (METTL3-14 [4]; MOLM-13, 0.1 μM) | degradation of the POI (METTL3-14 [5]) [%]
CC1(C)CCN(Cc2cc(F)c(N3CC(=O)NC4(CCN(c5cc(NCc6cccc(CNC(=O)CCCNc7cccc8c7C(=O)N(C7CCC(=O)NC7=O)C8=O)c6)ncn5)CC4)C3)cc2F)CC1 (centres unmarked) [Compound 14] | around 50% | 52% and 52 ± 8% | 52% and 52 ± 6% | only a minor effect | 95.5 | 97.5 | 103 | 102 | 94.1 | 1 | higher degradation | 11 ± 1 |  |  |  |  |  | 
CC1(C)CCN(Cc2cc(F)c(N3CC(=O)NC4(CCN(c5cc(NCc6cccc(CNC(=O)CCCCCCCCCCn7cc(CNc8cccc9c8C(=O)N(C8CCC(=O)NC8=O)C9=O)nn7)c6)ncn5)CC4)C3)cc2F)CC1 (centres unmarked) [Compound 20] |  | 42% and 42 ± 13% | 51% and 51 ± 10% | only a minor effect | 101 | 94.6 | 90.7 | 89.5 | 86.4 |  | higher degradation | 200 ± 30 | elevated levels of METTL3–14 | did not observe any degradation | ≥ 50 |  |  | 
CC1(C)CCN(Cc2cc(F)c(N3CC(=O)NC4(CCN(c5cc(NCC6CCN(C(=O)CCCNc7cccc8c7C(=O)N(C7CCC(=O)NC7=O)C8=O)CC6)ncn5)CC4)C3)cc2F)CC1 (centres unmarked) [Compound 22] |  | 46% and 46 ± 6% | 55 ± 11% | only a minor effect | 95.8 | 97.8 | 96.2 | 88.4 | 77.4 |  | higher degradation | 11 ± 1 |  |  |  | antiproliferative effect |  | 
CC1(C)CCN(Cc2cc(F)c(N3CC(=O)NC4(CCN(c5cc(NCC6CCN(C(=O)CCCCCNc7cccc8c7C(=O)N(C7CCC(=O)NC7=O)C8=O)CC6)ncn5)CC4)C3)cc2F)CC1 (centres unmarked) [Compound 24] |  | 36% and 36 ± 9% | 50 ± 13% | only a minor effect | 102 | 95.2 | 109 | 104 | 91 |  | higher degradation | 58 ± 12 | elevated levels of METTL3–14 | did not observe any degradation | ≥ 50 | antiproliferative effect |  | 
CC1(C)CCN(Cc2cc(F)c(N3CC(=O)NC4(CCN(c5cc(NCCN6CCN(C(=O)CCCCCNc7cccc8c7C(=O)N(C7CCC(=O)NC7=O)C8=O)CC6)ncn5)CC4)C3)cc2F)CC1 (centres unmarked) [Compound 30] |  |  |  | only a minor effect | 91.3 | 90.9 | 91.1 | 82.5 | 78.4 | 0.1 | higher degradation | 27 ± 6 |  |  |  | antiproliferative effect | up to 60% | 70
